Data reported in patent US9662351B2, “Plasma and brain pharmacokinetics of previously unexplored lithium salts” (University of South Florida, priority 2014, dated 2017).

Assays:
[1] = rat
Experimental: Male Sprague Dawley rats weighing 200-250 grams were dosed via oral gavage with 4 meq. […] Blood and brain were collected and lithium was measured using atomic absorption spectroscopy (AAS).
Male Sprague Dawley rats weighing 200-250 grams were purchased from Harlan (Harlan Sprague Dawley Inc., Indianapolis, Ind.). […] The rats were allowed to acclimate for a period of one week before any experiments are carried out. […] They were allowed free access to food and water throughout the experiment. […] Animals in each treatment group were euthanized at 2, 24, 48, and 72 hours (n=3 per time point per lithium salt) and blood was collected by cardiac puncture and carefully perfused with a pressure controlled pump to maintain microvasculature integrity before removing brain tissue. Blood was centrifuged at 1600×g at room temperature for 10 minutes and plasma was separated. A 500 mL aliquot was diluted 10 fold in a 5% TCA and 10% isopropyl alcohol (IPA) solution, vortexed and allowed to sit for 10 minutes in order to precipitate proteins. These aliquots were centrifuged at 3000×g for 30 minutes and the supernatant was transferred to clean tubes prior to measuring lithium content using atomic absorption spectroscopy (AAS). Brains were rinsed with PBS, weighed, and an equal volume of concentrated HNO3 was added. The brains were heated in this nitric acid solution for 1 hour, allowed to cool to room temperature, then centrifuged at 3000×g for 1 hour. The supernatant was removed and diluted 10 fold in 10% IPA prior to measuring lithium content using AAS (Shimadzu AA-6200). Peak height measurements were carried out referring to values obtained for standards of known concentrations. […] Two tailed t-tests were used to assess the statistical significance at each time point for the pharmacokinetic curves. The criterion for rejection of the null hypothesis was P<0.05.

[2] = rat, same protocol; previously reported [7]; peaks rapidly; cited from earlier work

Row | Compound | AUC(0-72) ([1]; brain lithium, 0-72 h, oral gavage 4 meq. kg^−1 elemental lithium, mean±SEM) [µg/g] | brain lithium exposure compared with other lithium salts (e.g. lithium lactate) ([1]; brain, oral) | plasma lithium exposure compared with other lithium salts (e.g. lithium lactate) ([1]; plasma, oral) | time to elimination of lithium [2] [h]
1 | O=C([O-])c1ccccc1O.[Li+] [Lithium Salicylate, Lithium salicylate] | 153.1 ± 7.66 | better brain exposure | comparatively lower plasma lithium exposure | –
2 | O=C([O-])[O-].[Li+].[Li+] [lithium carbonate] | – | – | – | ≤ 48
